The results in this text go back to PubChem BioAssay (NCI).

Where “and” joins values, the source holds several entries; their conditions need not be identical. Equal values may be shown once.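 Interpolation was linear, between the two tested concentrations surrounding the appropriate level; five concentrations were tested over 48 hours in 96-well plates. Abbreviation: GI50, concentration required for 50% inhibition of growth. Definition used: TGI = concentration required for complete inhibition of growth.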

Common to all, as to experiment: inhibition of tumour cell growth, NCI panel, 48 h
Experiment [1] relates to MOLT-4 leukemia.
Experiment [2] relates to HOP-92 NSCLC.
For experiment [3], the system named is A549 NSCLC.
Experiment [4] deals with SN12C renal.
Experiment [5] deals with CCRF-CEM leukemia.
For experiment [6], the system named is UACC-257 melanoma.
For experiment [7], the system named is UACC-62 melanoma.
Experiment [8] concerns T-47D breast.
Experiment [9] deals with PC-3 prostate.
Experiment [10] relates to HS 578T breast.

With `COC1OC(CO)C(O)C(NC(=O)N(C)N=O)C1O` (centres undefined), the TGI in [1], in experiment [2], in experiment [3], in [4] and in experiment [5] was more than 100 µM in each case.
`CN1C[C@@H]2CC(=O)CC[C@@H]2C[C@H]1C#N`: the TGI in experiment [1], in experiment [2], in experiment [6], in experiment [3], in experiment [7] and in experiment [4] was more than 100 µM throughout. In addition, in [5], the TGI is more than 100 µM.
In the case of `Cc1cc2c(=O)cc(-c3ccc(Cl)c(Cl)c3)oc2c(C(=O)O)c1C`, the TGI in [1], in experiment [6], in experiment [3], in experiment [7], in [4] and in [5] was more than 100 µM in each case.
With `c1ccc2c(CNCCCN3CCN(CCCNCc4cccc5ccccc45)CC3)cccc2c1`, the TGI in [1] turned out to be 2.92 µM; in [2], 4.65 µM; in experiment [6], 3.34 µM; in [3], 4.25 µM; in experiment [7], 3.26 µM; in experiment [4], 13.5 µM. The TGI in experiment [5] came to 3 µM.
In the case of `N#CCC(=O)N/N=C(/C(=O)Nc1ccccc1)C1C(=O)N(c2ccccc2)N=C1N` (centres undefined), the TGI in experiment [1], in experiment [2], in experiment [6], in experiment [3], in experiment [7] and in [4] was more than 100 µM throughout. Moreover, in [5], the TGI is more than 100 µM.
Regarding `CN(CC(=O)O)S(=O)(=O)c1ccc(Cl)cc1`, the TGI in experiment [1], in experiment [2], in [6], in experiment [3], in experiment [7] and in experiment [4] was more than 100 µM throughout. This compound showed a TGI in [5] of more than 100 µM.
`CC(=O)Nc1ccc(S(=O)(=O)N/N=C/c2cc(I)cc([N+](=O)[O-])c2O)cc1`: the TGI in experiment [1] is more than 100 µM; in [6], more than 100 µM; in experiment [3], more than 100 µM; in [7], 90.9 µM; in experiment [4], more than 100 µM; in experiment [5] it was more than 100 µM.
Take `Cc1cc2c(=O)cc(-c3ccc(Cl)cc3Cl)oc2c(C(=O)O)c1C`: the TGI in experiment [1], in experiment [6], in experiment [3], in experiment [7], in [4] and in experiment [5] was more than 100 µM throughout.
For the compound `Cc1ccccc1C(C#N)/C(=N/NC(N)=S)C(=O)Nc1c(C)cccc1C` (centres undefined), the TGI in experiment [1], in [2], in [6], in [3], in experiment [7] and in [4] was more than 100 µM in each case. The TGI in experiment [5] is more than 100 µM.
On to `C#CCOCCCC(=O)O`, for which the TGI in experiment [1], in experiment [8], in experiment [9], in [2], in experiment [6] and in experiment [3] was more than 100 µM throughout. Besides, the TGI in experiment [7], in [4] and in [5] was more than 100 µM throughout.
In the case of `Cc1ccc(S(=O)OC2c3ccccc3Cc3ccccc32)cc1` (centres undefined), the TGI is 75.7 µM in experiment [1]; 36.5 µM in experiment [2]; 34.9 µM in [6]; 87.2 µM in experiment [3]; 31.8 µM in [7]; 49.6 µM in [4].
Take `S=c1sc2sc(=S)sc2s1`: the TGI in experiment [1], in [2], in experiment [6], in experiment [3], in [7] and in [4] was more than 100 µM in each case. For the same compound, the TGI in experiment [5] was more than 100 µM.
`CCOc1ccc(N=C2NC(=O)C(CC(=O)Nc3ccc(Cl)cc3Cl)S2)cc1` (centres undefined): the TGI in [1], in experiment [6], in experiment [3], in experiment [7], in experiment [4] and in experiment [5] was more than 100 µM throughout.
As for `CNC(=O)N(CCCC(NC(C)=O)C(=O)NCc1ccccc1)Cc1ccccc1` (centres undefined), the TGI in experiment [1], in [2], in [6], in experiment [3], in experiment [7] and in [4] was more than 100 µM throughout. The compound further came in with a TGI in experiment [5] of more than 100 µM.
As for `Cc1ccc(NC(=O)CC2SC(=Nc3cccc(Cl)c3C)NC2=O)cc1` (centres undefined), the TGI in experiment [1], in experiment [6], in [3], in [7], in experiment [4] and in experiment [5] was more than 100 µM throughout.
As to `COC(=O)CC12CC(NC(=O)c3csc([C@@H](C[C@H](C(C)C)N(C)C(=O)[C@@H](NC(=O)[C@H]4CCCCN4C)C(C)C)OC(C)=O)n3)(C1)C2`, the GI50 in experiment [1] was 0.00615 µM and 0.0143 µM; in experiment [9] it was 0.00396 µM and 0.0101 µM; in experiment [2], 0.0174 µM; in experiment [6], 23.7 µM; in [3] it was 0.00777 µM and 0.013 µM; in experiment [10] it was 0.00396 µM and 0.00902 µM. For the same compound, the GI50 in experiment [7] was 0.00325 µM and 0.00622 µM; in experiment [4], 0.00446 µM and 0.0202 µM; in experiment [5] it was 0.0036 µM and 0.00718 µM. Further, the TGI in experiment [1] is more than 33.3 µM; in experiment [9] it was more than 33.3 µM; in experiment [2] it was 4.73 µM; in [6], more than 33.3 µM; in experiment [3], more than 33.3 µM; in experiment [10] it was more than 33.3 µM. In addition, the TGI in experiment [7], in experiment [4] and in experiment [5] was more than 33.3 µM throughout.
Consider `Cc1cc2c(=O)cc(-c3ccc(C(=O)O)cc3)oc2c(C(N)=O)c1C`, for which the TGI in [1], in [2], in experiment [6], in [3], in experiment [7] and in experiment [4] was more than 100 µM throughout. The compound also had a TGI in [5] of more than 100 µM.
